According to ChEMBL document CHEMBL5726546, “Dihydroquinoline pyrazolyl compounds” (2017):

How the values were obtained:
[1] = target: T1, Cytochrome P450 11B2, mitochondrial (Homo sapiens, UniProt P19099); assay: (§1) Inhibition Assay: The expression plasmids contains the ORF for either human/cyno CYP11B1 or CYP11B2 under the control of a suitable promoter (CMV-promoter) and a suitable resistance marker (neomycin). Using standard techniques the expression plasmid is transfected into G-402 cells and these cells are then selected for expressing the given resistance markers. Individual cell-clones are then selected and assessed for displaying the desired enzymatic activity using 11-Deoxycorticosterone (Cyp11B2) or 11-Deoxycortisol (Cyp11B1) as a substrate.G-402 cells expressing CYP11 constructs were established as described above and maintained in McCoy's 5a Medium Modified, ATCC Catalog No. 30-2007 containing 10% FCS and 400 μg/ml G418 (Geneticin) at 37° C. under an atmosphere of 5% CO2/95% air. Cellular enzyme assays were performed in DMEM/F12 medium containing 2.5% charcoal treated FCS and appropriate concentration of substrate (0.3-10 uM 11-Deoxycorticosterone, 11-Deoxycortisol or Corticosterone). For assaying enzymatic activity, cells were plated onto 96 well plates and incubated for 16 h. An aliquot of the supernatant is then transferred and analyzed for the concentration of the expected product (Aldosterone for CYP11B2; Cortisol for CYP11B1). The concentrations of these steroids can be determined using HTRF assays from CisBio analyzing either Aldosterone or Cortisol.
T1 sequence (P19099 whole entry): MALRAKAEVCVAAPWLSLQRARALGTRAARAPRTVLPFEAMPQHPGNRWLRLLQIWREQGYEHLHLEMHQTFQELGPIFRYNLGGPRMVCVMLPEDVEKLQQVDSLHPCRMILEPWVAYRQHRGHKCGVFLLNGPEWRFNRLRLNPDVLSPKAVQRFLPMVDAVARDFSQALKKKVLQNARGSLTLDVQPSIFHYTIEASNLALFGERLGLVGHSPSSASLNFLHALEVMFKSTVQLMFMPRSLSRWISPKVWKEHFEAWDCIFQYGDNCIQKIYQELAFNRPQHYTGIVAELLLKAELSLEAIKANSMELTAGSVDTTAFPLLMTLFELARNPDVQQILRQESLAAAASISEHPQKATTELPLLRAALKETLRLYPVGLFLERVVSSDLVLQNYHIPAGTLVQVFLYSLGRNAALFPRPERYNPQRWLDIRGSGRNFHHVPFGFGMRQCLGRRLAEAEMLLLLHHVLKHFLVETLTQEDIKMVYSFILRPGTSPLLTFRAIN

[2] = target: T2, Cytochrome P450 11B1, mitochondrial (Homo sapiens, UniProt P15538); assay: as §1
T2 sequence (P15538 whole entry): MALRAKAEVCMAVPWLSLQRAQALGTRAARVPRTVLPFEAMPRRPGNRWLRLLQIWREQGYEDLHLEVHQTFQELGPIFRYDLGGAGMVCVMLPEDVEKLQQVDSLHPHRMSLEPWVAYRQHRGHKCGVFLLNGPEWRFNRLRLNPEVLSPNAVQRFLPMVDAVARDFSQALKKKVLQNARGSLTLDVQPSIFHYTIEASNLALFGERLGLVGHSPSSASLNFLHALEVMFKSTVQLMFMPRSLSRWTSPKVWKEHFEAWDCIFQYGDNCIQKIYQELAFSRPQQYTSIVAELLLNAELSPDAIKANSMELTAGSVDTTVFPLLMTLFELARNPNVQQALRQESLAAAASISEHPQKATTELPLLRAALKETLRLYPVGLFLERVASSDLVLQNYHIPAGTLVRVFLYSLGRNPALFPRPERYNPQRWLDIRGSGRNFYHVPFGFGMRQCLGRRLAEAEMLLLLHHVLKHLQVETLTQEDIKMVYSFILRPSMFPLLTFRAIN

Structure (SMILES): CC(=O)N1CCC([C@@H](C)c2c[nH]nc2-c2ccc3c(c2F)CCC(=O)N3C)CC1 (single isomer, unassigned)
- EC50 [1]: 0.012 nM
- EC50 [2]: 0.074 nM

Structure (SMILES): CN1C(=O)CCc2c1ccc(-c1n[nH]cc1CC1CCN(C(=O)c3ccnn3C)CC1)c2F
- EC50 [2]: 0.076 nM

Structure (SMILES): CN1C(=O)CCc2c1ccc(-c1n[nH]cc1CC1CCN(S(=O)(=O)c3ccnn3C)CC1)c2F
- EC50 [1]: 0.014 nM
- EC50 [2]: 0.704 nM

Structure (SMILES): CC(=O)N1CCC(C(C)c2c[nH]nc2-c2ccc3c(c2F)CCC(=O)N3C)CC1 (racemic)
- EC50 [2]: 0.049 nM

Structure (SMILES): CC(=O)N1CCC([C@H](C)c2c[nH]nc2-c2ccc3c(c2F)CCC(=O)N3C)CC1 (single isomer, unassigned)
- EC50 [1]: 0.064 nM

Structure (SMILES): CC(=O)N1CCC(C(C)c2c[nH]nc2-c2cc3c(cc2F)N(C)C(=O)CC3)CC1 (racemic)
- EC50 [2]: 0.067 nM
